Source: patent US7514452B2, “2-furancarboxylic acid hydrazides and pharmaceutical compositions containing the same” (Dainippon Pharmaceutical Co., Ltd, priority 2002, dated 2009)

What was measured:
glucagon receptor [1] = biological target: glucagon receptor (Mus musculus, UniProt Q61606); test: Experiment for glucagon binding inhibition, mouse hepatic membrane (125I-glucagon); settings: male ddY mouse hepatic membrane, 125I-glucagon 50 pM, 25° C. for 30 minutes; read-out: Glucagon binding inhibitory activity IC50 (nM) Mouse
Procedure: (§1) The preparation of membrane from mouse and rat livers was carried out according to the method described in Bioorg. Med. Chem. Lett. 1992, 12, 915-918 in this experiment and ^125I-glucagon binding activity was measured with these membranes as glucagon receptor's samples. Livers were removed from male SD rats (about 250 g body weight per rat) and male ddY mice (about 30 g body weight per mouse). […] The homogenate was centrifuged for 15 minutes at 30,000×g. […] The precipitaion thus obtained was used as a hepatic membrane sample. […] The mixture was incubated at 25° C. for 30 minutes. […] The filter was washed 3 times with 50 mM Tris-HCl buffer (pH 7.2), and the radioactivity of the filter was measured by a γ counter (ARC-360, Aloka Co., Ltd.). […] Each experiment was carried out in duplicate. […] The concentration at 50% inhibition of binding (IC50) was calculated using a pseudo Hill plot.

glucagon receptor [2] = biological target: glucagon receptor (Rattus norvegicus, UniProt P30082); test: Experiment for glucagon binding inhibition, rat hepatic membrane (125I-glucagon); settings: male SD rat hepatic membrane, 125I-glucagon 50 pM, 25° C. for 30 minutes; read-out: Glucagon binding inhibitory activity IC50 (nM) Rat
Procedure: as §1

Sequence of glucagon receptor (Mus musculus, UniProt Q61606) (Q61606 27-485): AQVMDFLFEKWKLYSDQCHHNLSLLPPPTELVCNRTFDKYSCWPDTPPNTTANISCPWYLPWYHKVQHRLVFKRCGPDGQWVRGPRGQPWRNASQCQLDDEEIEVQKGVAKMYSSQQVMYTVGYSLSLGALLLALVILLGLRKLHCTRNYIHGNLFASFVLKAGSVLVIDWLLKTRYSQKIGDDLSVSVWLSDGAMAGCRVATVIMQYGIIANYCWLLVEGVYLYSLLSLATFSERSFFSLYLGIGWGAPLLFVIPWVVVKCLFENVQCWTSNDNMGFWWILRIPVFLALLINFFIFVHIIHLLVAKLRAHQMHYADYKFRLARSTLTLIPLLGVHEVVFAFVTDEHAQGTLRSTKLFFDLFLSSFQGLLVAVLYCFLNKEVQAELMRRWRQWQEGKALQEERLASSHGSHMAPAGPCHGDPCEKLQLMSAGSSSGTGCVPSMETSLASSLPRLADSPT
Sequence of glucagon receptor (Rattus norvegicus, UniProt P30082) (P30082 27-485): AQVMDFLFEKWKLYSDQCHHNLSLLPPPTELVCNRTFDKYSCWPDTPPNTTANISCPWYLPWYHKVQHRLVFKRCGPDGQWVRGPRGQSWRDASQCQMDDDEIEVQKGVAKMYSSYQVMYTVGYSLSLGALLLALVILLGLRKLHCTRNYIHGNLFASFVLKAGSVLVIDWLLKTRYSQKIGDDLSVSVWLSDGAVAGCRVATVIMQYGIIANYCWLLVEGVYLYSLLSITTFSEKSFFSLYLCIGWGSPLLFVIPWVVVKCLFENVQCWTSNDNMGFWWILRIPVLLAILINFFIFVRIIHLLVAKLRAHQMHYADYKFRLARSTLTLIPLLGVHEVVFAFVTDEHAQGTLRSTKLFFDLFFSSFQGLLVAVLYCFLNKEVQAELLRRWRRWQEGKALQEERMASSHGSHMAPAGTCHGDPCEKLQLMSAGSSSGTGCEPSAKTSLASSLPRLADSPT

| Compound | IC50 (glucagon receptor [1]) | IC50 (glucagon receptor [2]) |
| --- | --- | --- |
| Cc1cc(C)c(C)c(COc2cccc(-c3ccoc3C(=O)NNC(=O)c3ccc(O)c(C#N)c3)c2)c1C [Example 1, 3-[3-(2,3,5,6-tetramethylbenzyloxy)phenyl]-2-furancarboxylic acid 2-(3-cyano-4-hydroxybenzoyl)hydrazide] | 99 nM | 21 nM |
| N#Cc1cc(C(=O)NNC(=O)c2occc2-c2cccc(Oc3ccccc3)c2)ccc1O [Example 2, 3-(3-phenoxyphenyl)-2-furancarboxylic acid 2-(3-cyano-4-hydroxybenzoyl)hydrazide] | 140 nM | 330 nM |
| N#Cc1cc(C(=O)NNC(=O)c2occc2-c2cccc(OCc3ccccc3)c2)ccc1O [Example 3, 3-(3-benzyloxyphenyl)-2-furancarboxylic acid 2-(3-cyano-4-hydroxybenzoyl)hydrazide] | 52 nM | 30 nM |
| N#Cc1cc(C(=O)NNC(=O)c2occc2-c2cccc(OCCc3ccccc3)c2)ccc1O [Example 4, 3-(3-phenethyloxyphenyl)-2-furancarboxylic acid 2-(3-cyano-4-hydroxybenzoyl)hydrazide] | 130 nM | 28 nM |
| N#Cc1cc(C(=O)NNC(=O)c2occc2-c2ccccc2OCc2ccccc2)ccc1O [Example 5, 3-(2-benzyloxyphenyl)-2-furancarboxylic acid 2-(3-cyano-4-hydroxybenzoyl)hydrazide] | 130 nM | 200 nM |
| N#Cc1cc(C(=O)NNC(=O)c2occc2-c2ccccc2Cc2ccccc2)ccc1O [Example 8, 3-(2-benzylphenyl)-2-furancarboxylic acid 2-(3-cyano-4-hydroxybenzoyl)hydrazide] | 310 nM | 170 nM |
| Cc1cc(C)c(C)c(COc2ccccc2-c2ccoc2C(=O)NNC(=O)c2ccc(O)c(C#N)c2)c1C [Example 9, 3-[2-(2,3,5,6-tetramethylbenzyloxy)phenyl]-2-furancarboxylic acid 2-(3-cyano-4-hydroxybenzoyl)hydrazide] | 75 nM | 210 nM |
| CC(C)Oc1ccccc1-c1ccoc1C(=O)NNC(=O)c1ccc(O)c(C#N)c1 [Example 10, 3-(2-isopropoxyphenyl)-2-furancarboxylic acid 2-(3-cyano-4-hydroxybenzoyl)hydrazide] | 230 nM | 180 nM |
| CCCOc1ccccc1-c1ccoc1C(=O)NNC(=O)c1ccc(O)c(C#N)c1 [Example 11, 3-(2-propoxyphenyl)-2-furancarboxylic acid 2-(3-cyano-4-hydroxybenzoyl)hydrazide] | 450 nM | 140 nM |
| N#Cc1cc(C(=O)NNC(=O)c2occc2-c2ccccc2OCCc2ccccc2)ccc1O [Example 12, 3-(2-phenethyloxyphenyl)-2-furancarboxylic acid 2-(3-cyano-4-hydroxybenzoyl)hydrazide] | 170 nM | 85 nM |
| N#Cc1cc(C(=O)NNC(=O)c2occc2-c2ccccc2Oc2ccccc2)ccc1O [Example 13, 3-(2-phenoxyphenyl)-2-furancarboxylic acid 2-(3-cyano-4-hydroxybenzoyl)hydrazide] | 180 nM | 190 nM |
| Cc1cc(C)c(C)c(COc2ccc(-c3ccoc3C(=O)NNC(=O)c3ccc(O)c(C#N)c3)cc2)c1C [Example 15, 3-[4-(2,3,5,6-tetramethylbenzyloxy)phenyl]-2-furancarboxylic acid 2-(3-cyano-4-hydroxybenzoyl)hydrazide] | 170 nM | 27 nM |
| N#Cc1cc(C(=O)NNC(=O)c2occc2-c2ccc(Oc3ccccc3)cc2)ccc1O [Example 16, 3-(4-phenoxyphenyl)-2-furancarboxylic acid 2-(3-cyano-4-hydroxybenzoyl)hydrazide] | 180 nM | 87 nM |
| N#Cc1cc(C(=O)NNC(=O)c2occc2-c2ccc(OCc3ccccc3)cc2)ccc1O [Example 17, 3-(4-benzyloxyphenyl)-2-furancarboxylic acid 2-(3-cyano-4-hydroxybenzoyl)hydrazide] | 160 nM | 99 nM |
| N#Cc1cc(C(=O)NNC(=O)c2occ(-c3ccccc3)c2-c2ccccc2)ccc1O [Example 18, 3,4-diphenyl-2-furancarboxylic acid 2-(3-cyano-4-hydroxybenzoyl)hydrazide] | 120 nM | 41 nM |
| O=C(NNC(=O)c1occ(-c2ccccc2)c1-c1ccccc1)c1ccc(O)c([N+](=O)[O-])c1 [Example 19, 3,4-diphenyl-2-furancarboxylic acid 2-(4-hydroxy-3-nitrobenzoyl)hydrazide] | 97 nM | 86 nM |

| Compound | IC50 (glucagon receptor [1]) | IC50 (glucagon receptor [2]) |
| --- | --- | --- |
| Cc1cc(C)c(C)c(COc2cccc(-c3ccoc3C(=O)NNC(=O)c3ccc(O)c([N+](=O)[O-])c3)c2)c1C [Example 20, 3-[3-(2,3,5,6-tetramethylbenzyloxy)phenyl]-2-furancarboxylic acid 2-(4-hydroxy-3-nitrobenzoyl)hydrazide] | 24 nM | 9.2 nM |
| O=C(NNC(=O)c1occ(-c2ccccc2)c1-c1ccccc1)c1ccc(O)c(C(F)(F)F)c1 [Example 43, 3,4-diphenyl-2-furancarboxylic acid 2-(4-hydroxy-3-trifluoromethylbenzoyl)hydrazide] | 390 nM | 160 nM |
| N#Cc1cc(C(=O)NNC(=O)c2occ(COC(=O)Nc3ccccc3)c2-c2ccccc2)ccc1O [Example 53, 4-(phenylaminocarbonyloxymethyl)-3-phenyl-2-furancarboxylic acid 2-(3-cyano-4-hydroxybenzoyl)hydrazide] | 240 nM | 75 nM |
| N#Cc1cc(C(=O)NNC(=O)c2occ(COC(=O)NCCc3ccccc3)c2-c2ccccc2)ccc1O [Example 54, 4-(Phenethylaminocarbonyloxymethyl)-3-phenyl-2-furancarboxylic acid 2-(3-cyano-4-hydroxybenzoyl)hydrazide] | 380 nM | 150 nM |
| N#Cc1cc(C(=O)NNC(=O)c2occ(COCc3ccccc3)c2-c2ccccc2)ccc1O [Example 56, 4-Benzyloxymethyl-3-phenyl-2-furancarboxylic acid 2-(3-cyano-4-hydroxybenzoyl)hydrazide] | 220 nM | 150 nM |
| N#Cc1cc(C(=O)NNC(=O)c2occ(C=CCCc3ccccc3)c2-c2ccccc2)ccc1O [Example 59, 3-Phenyl-4-(4-phenyl-1-butenyl)-2-furancarboxylic acid 2-(3-cyano-4-hydroxybenzoyl)hydrazide] | 84 nM | 35 nM |
| N#Cc1cc(C(=O)NNC(=O)c2occc2-c2cccs2)ccc1O [Example 60, 3-(2-thienyl)-2-furancarboxylic acid 2-(3-cyano-4-hydroxybenzoyl)hydrazide] | 160 nM | 120 nM |
| N#Cc1cc(C(=O)NNC(=O)c2occc2-c2ccccc2)ccc1O [Example 61, 3-phenyl-2-furancarboxylic acid 2-(3-cyano-4-hydroxybenzoyl)hydrazide] | 200 nM | 58 nM |
| Cc1cc(C)c(C)c(COc2cccc(-c3c(-c4ccccc4)coc3C(=O)NNC(=O)c3ccc(O)c(C#N)c3)c2)c1C [Example 98, 4-phenyl-3-[3-(2,3,5,6-tetramethylbenzyloxy)phenyl]-2-furancarboxylic acid 2-(3-cyano-4-hydroxybenzoyl)hydrazide] | 4 nM | 1.5 nM |
| Cc1cc(C)c(C)c(COc2cccc(-c3coc(C(=O)NNC(=O)c4ccc(O)c(C#N)c4)c3-c3ccccc3)c2)c1C [Example 99, 3-phenyl-4-[3-(2,3,5,6-tetramethylbenzyloxy)phenyl]-2-furancarboxylic acid 2-(3-cyano-4-hydroxybenzoyl)hydrazide] | 13 nM | 3.4 nM |
| Cc1cc(C)c(C)c(COc2cccc(-c3c(-c4ccccc4)coc3C(=O)NNC(=O)c3ccc(O)c([N+](=O)[O-])c3)c2)c1C [Example 100, 4-phenyl-3-[3-(2,3,5,6-tetramethylbenzyloxy)phenyl]-2-furancarboxylic acid 2-(4-hydroxy-3-nitrobenzoyl)hydrazide] | 9.1 nM | 5.8 nM |
| O=C(NNC(=O)c1occc1-c1cccc(OCc2ccccc2)c1)c1ccc(O)c([N+](=O)[O-])c1 [Example 101, 3-(3-benzyloxyphenyl)-2-furancarboxylic acid 2-(4-hydroxy-3-nitrobenzoyl)hydrazide] | 28 nM | 33 nM |
| N#Cc1cc(C(=O)NNC(=O)c2occc2-c2cccc(OCc3ccncc3)c2)ccc1O [Example 102, 3-[3-(4-pyridylmethyloxy)phenyl]-2-furancarboxylic acid 2-(3-cyano-4-hydroxybenzoyl)hydrazide] | 93 nM | 95 nM |
| N#Cc1cc(C(=O)NNC(=O)c2occc2-c2cccc(OCC(O)c3ccccc3)c2)ccc1O (centres unmarked) [Example 108, 3-[3-(2-Hydroxy-2-phenylethoxy)phenyl]-2-furancarboxylic acid 2-(3-cyano-4-hydroxybenzoyl)hydrazide] | 310 nM | 110 nM |
| N#Cc1cc(C(=O)NNC(=O)c2occ(-c3cccc(OCc4ccccc4)c3)c2-c2cccc(OCc3ccccc3)c2)ccc1O [Example 115, 3,4-bis(3-benzyloxyphenyl)-2-furancarboxylic acid 2-(3-cyano-4-hydroxybenzoyl)hydrazide] | 80 nM | 54 nM |
